Results: US20230117324A1, “OXAZINE MONOACYLGLYCEROL LIPASE (MAGL) INHIBITORS” (Hoffmann-La Roche Inc., priority 2018, published 2023)

These compounds were tested against T1, MAGL (Homo sapiens, UniProt Q99685) (assay: MAGL inhibition, 2-AG assay (hydrolysis of 2-arachidonoylglycerol, arachidonic acid by mass spectrometry)). Conditions: 2-AG assay (footnote [b]).
T1 sequence (Q99685 1-303): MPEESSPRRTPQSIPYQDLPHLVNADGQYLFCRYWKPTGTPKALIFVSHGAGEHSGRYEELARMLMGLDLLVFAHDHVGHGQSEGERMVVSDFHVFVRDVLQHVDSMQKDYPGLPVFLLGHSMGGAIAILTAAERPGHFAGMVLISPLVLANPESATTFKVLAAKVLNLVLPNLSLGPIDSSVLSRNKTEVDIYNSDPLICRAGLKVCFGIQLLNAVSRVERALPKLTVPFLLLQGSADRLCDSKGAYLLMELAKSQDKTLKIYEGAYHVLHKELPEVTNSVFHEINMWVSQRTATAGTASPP
Type: biochemical
Outline: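 Human MAGL […] was preincubated 15 min at RT with compound ([…], 3-fold steps) in 50 mM Tris, 1 mM EDTA, 0.01% Tween. 2-AG (8 μM) was then added for 30 min at RT. Arachidonic acid was quantified by RapidFire SPE–triple quadrupole MS in negative ESI as its ratio to a d8-arachidonic acid standard.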

**Q.** For `O=C1CO[C@H]2CCN(C(=O)N3CC(c4ccc(C56CC(C5)C6)cc4)C3)C[C@H]2N1` [Example 206, (4aR,8aS)-6-(3-(4-(Bicyclo[1.1.1]pentan-1-yl)phenyl)azetidine-1-carbonyl)hexahydro-2H-pyrido[4,3-b][1,4]oxazin-3(4H)-one], which IC50 is on record?
**A.** Its IC50 is 5 nM.

**Q.** How did the IC50 turn out when `O=C1CO[C@H]2CCN(C(=O)N3CC(c4ccc(N5CCCC5C(F)(F)F)cn4)C3)C[C@H]2N1` (stereo partly drawn) [Example 207, (4aR,8aS)-6-(3-(5-(2-(Trifluoromethyl)pyrrolidin-1-yl)pyridin-2-yl)azetidine-1-carbonyl)hexahydro-2H-pyrido[4,3-b][1,4]oxazin-3(4H)-one] was run?
**A.** Its IC50 is 6 nM.

**Q.** How did the IC50 turn out when `O=C1CO[C@H]2CCN(C(=O)N3CCC(c4c[nH]c5ccc(F)cc45)C3)C[C@H]2N1` (stereo partly drawn) [Example 208, (4aR,8aS)-6-(3-(5-Fluoro-1H-indol-3-yl)pyrrolidine-1-carbonyl)hexahydro-2H-pyrido[4,3-b][1,4]oxazin-3(4H)-one] was run?
**A.** The IC50 was 48 nM.

**Q.** How did the IC50 turn out when `O=C1CO[C@H]2CCN(C(=O)N3CCC(c4cn(Cc5ccccc5)c5ccc(Cl)cc45)C3)C[C@H]2N1` (stereo partly drawn) [Example 209, (4aR,8aS)-6-(3-(1-Benzyl-5-chloro-1H-indol-3-yl)pyrrolidine-1-carbonyl)hexahydro-2H-pyrido[4,3-b][1,4]oxazin-3(4H)-one] was run?
**A.** The IC50 was 0.8 nM.

**Q.** `O=C1CO[C@H]2CCN(C(=O)N3CC(c4ccc(C(F)(F)F)cc4F)C3)C[C@H]2N1` [Example 210, (4aR,8aS)-6-(3-(2-Fluoro-4-(trifluoromethyl)phenyl)azetidine-1-carbonyl)hexahydro-2H-pyrido[4,3-b][1,4]oxazin-3(4H)-one] was tested. Which IC50 did it give?
**A.** Its IC50 is 112 nM.

**Q.** For `O=C1CO[C@H]2CCN(C(=O)N3CC(c4ccc(OC(F)(F)F)c(Cl)c4)C3)C[C@H]2N1` [Example 211, (4aR,8aS)-6-(3-(3-Chloro-4-(trifluoromethoxy)phenyl)azetidine-1-carbonyl)hexahydro-2H-pyrido[4,3-b][1,4]oxazin-3(4H)-one], which IC50 is on record?
**A.** The IC50 was 11 nM.

**Q.** `O=C1CO[C@H]2CCN(C(=O)N3CC(c4ccc(N5CC(OCC6CC6)C5)cc4)C3)C[C@H]2N1` [Example 212, (4aR,8aS)-6-[3-[4-[3-(Cyclopropylmethoxy)azetidin-1-yl]phenyl]azetidine-1-carbonyl]-4,4a,5,7,8,8a-hexahydropyrido[4,3-b][1,4]oxazin-3-one] was tested. Which IC50 did it give?
**A.** The IC50 was 3 nM.

**Q.** With `N#Cc1cc(C2CN(C(=O)N3CC[C@@H]4OCC(=O)N[C@@H]4C3)C2)ccc1OC(F)(F)F` [Example 213, 5-(1-((4aR,8aS)-3-Oxooctahydro-2H-pyrido[4,3-b][1,4]oxazine-6-carbonyl)azetidin-3-yl)-2-(trifluoromethoxy)benzonitrile] as the compound, how does the IC50 read?
**A.** Its IC50 is 114 nM.

**Q.** For `O=C1CO[C@H]2CCN(C(=O)N3CC(c4ccc(C5(CO)CC5)cc4)C3)C[C@H]2N1` [Example 214, (4aR,8aS)-6-(3-(4-(1-(Hydroxymethyl)cyclopropyl)phenyl)azetidine-1-carbonyl)hexahydro-2H-pyrido[4,3-b][1,4]oxazin-3(4H)-one], which IC50 is on record?
**A.** The IC50 was 62 nM.

**Q.** For `Cn1ncc2c(C3CN(C(=O)N4CC[C@@H]5OCC(=O)N[C@@H]5C4)C3)cccc21` [Example 215, (4aR,8aS)-6-(3-(1-Methyl-1H-indazol-4-yl)azetidine-1-carbonyl)hexahydro-2H-pyrido[4,3-b][1,4]oxazin-3(4H)-one], which IC50 is on record?
**A.** Its IC50 is 550 nM.

**Q.** With `O=C1CO[C@H]2CCN(C(=O)N3CC(c4ccc(N5CCC(F)C5)cc4)C3)C[C@H]2N1` (stereo partly drawn) [Example 216, (4aR,8aS)-6-(3-(4-(3-Fluoropyrrolidin-1-yl)phenyl)azetidine-1-carbonyl)hexahydro-2H-pyrido[4,3-b][1,4]oxazin-3(4H)-one] as the compound, how does the IC50 read?
**A.** Its IC50 is 23 nM.

**Q.** With `CC1CCN1c1ccc(C2CN(C(=O)N3CC[C@@H]4OCC(=O)N[C@@H]4C3)C2)cc1` (stereo partly drawn) [Example 217, (4aR,8aS)-6-(3-(4-(2-Methylazetidin-1-yl)phenyl)azetidine-1-carbonyl)hexahydro-2H-pyrido[4,3-b][1,4]oxazin-3(4H)-one] as the compound, how does the IC50 read?
**A.** The IC50 was 6 nM.
